Legend:
Assay in all cases: relative viability (nuclei count vs DMSO), 5 days (fraction); higher = more cells survive
201T = system: 201T
In short: (§1)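 One day after seeding in 1536-well plates, lung cancer cell lines were dosed by pin tool. Dosing was either single-drug or a fixed anchor-drug dose plus five library-drug doses (not always all listed) in √10 steps. After 5 days, nuclei were stained in one fix-and-stain step and counted on 4× images, and relative viability is the nuclei count of treated wells over that of vehicle wells, given as the median of duplicate plates.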

NCI-H1650 = system: NCI-H1650
In short: as §1

NCI-H460 = system: NCI-H460
In short: as §1

CAL-12T = system: CAL-12T
In short: as §1

H3255 = system: H3255
In short: as §1

NCI-H1651 = system: NCI-H1651
In short: as §1

NCI-H1792 = system: NCI-H1792
In short: as §1

NCI-H1915 = system: NCI-H1915
In short: as §1

NCI-H650 = system: NCI-H650
In short: as §1

NCI-H1944 = system: NCI-H1944
In short: as §1

BEN = system: BEN
In short: as §1

ABC-1 = system: ABC-1
In short: as §1

NCI-H2023 = system: NCI-H2023
In short: as §1

NCI-H520 = system: NCI-H520
In short: as §1

NCI-H661 = system: NCI-H661
In short: as §1

LC-2-ad = system: LC-2-ad
In short: as §1

PC-3 [JPC-3] = system: PC-3 [JPC-3]
In short: as §1

NCI-H727 = system: NCI-H727
In short: as §1

NCI-H2087 = system: NCI-H2087
In short: as §1

NCI-H596 = system: NCI-H596
In short: as §1

LCLC-97TM1 = system: LCLC-97TM1
In short: as §1

A-427 = system: A-427
In short: as §1

`C=C1C(=O)O[C@@H](CCCCCCCC)[C@@H]1C(=O)O` [C-75] + CS(=O)(=O)CCNCc1ccc(-c2ccc3ncnc(Nc4ccc(OCc5cccc(F)c5)c(Cl)c4)c3c2)o1 [Lapatinib] (partner 2 µM) was tested, and the relative viability (201T; first compound 0.08 µM) was 1, the relative viability (201T; first compound 0.253 µM) was 1.2 and the relative viability (201T; first compound 0.8 µM) was 0.959. For the same compound, the relative viability (201T; first compound 2.53 µM) was 0.886, the relative viability (201T; first compound 8 µM) was 1.05 and the relative viability (NCI-H1650; first compound 0.08 µM) was 0.844. The relative viability (NCI-H1650; first compound 0.253 µM) was 0.914, the relative viability (NCI-H1650; first compound 0.8 µM) was 0.775 and the relative viability (NCI-H1650; first compound 2.53 µM) was 0.963. The relative viability (NCI-H1650; first compound 8 µM) was 1.09, the relative viability (NCI-H460; first compound 0.08 µM) was 0.951 and the relative viability (NCI-H460; first compound 0.253 µM) was 1.38. For the same compound, the relative viability (NCI-H460; first compound 0.8 µM) was 0.847, the relative viability (NCI-H460; first compound 8 µM) was 0.884 and the relative viability (CAL-12T; first compound 0.08 µM) was 0.673. For the same compound, the relative viability (CAL-12T; first compound 0.253 µM) was 0.863, the relative viability (CAL-12T; first compound 0.8 µM) was 0.492 and the relative viability (CAL-12T; first compound 2.53 µM) was 0.604. It also gave a relative viability (CAL-12T; first compound 8 µM) of 0.765, a relative viability (H3255; first compound 0.08 µM) of 0.277 and a relative viability (H3255; first compound 0.253 µM) of 0.314. It also gave a relative viability (H3255; first compound 0.8 µM) of 0.254, a relative viability (H3255; first compound 2.53 µM) of 0.21 and a relative viability (H3255; first compound 8 µM) of 0.274. For the same compound, the relative viability (NCI-H1651; first compound 0.08 µM) was 0.706, the relative viability (NCI-H1651; first compound 0.253 µM) was 0.853 and the relative viability (NCI-H1651; first compound 0.8 µM) was 0.816. It also gave a relative viability (NCI-H1651; first compound 2.53 µM) of 0.747, a relative viability (NCI-H1651; first compound 8 µM) of 0.81 and a relative viability (NCI-H1792; first compound 0.08 µM) of 0.865. For the same compound, the relative viability (NCI-H1792; first compound 0.253 µM) was 0.835, the relative viability (NCI-H1792; first compound 0.8 µM) was 0.675 and the relative viability (NCI-H1792; first compound 2.53 µM) was 0.68. The relative viability (NCI-H1792; first compound 8 µM) was 0.798, the relative viability (NCI-H1915; first compound 0.08 µM) was 0.952 and the relative viability (NCI-H1915; first compound 0.253 µM) was 0.945. It also gave a relative viability (NCI-H1915; first compound 0.8 µM) of 0.89, a relative viability (NCI-H1915; first compound 2.53 µM) of 0.917 and a relative viability (NCI-H1915; first compound 8 µM) of 0.909. The relative viability (NCI-H650; first compound 0.08 µM) was 1.02, the relative viability (NCI-H650; first compound 0.253 µM) was 0.86 and the relative viability (NCI-H650; first compound 0.8 µM) was 0.803. It also gave a relative viability (NCI-H650; first compound 2.53 µM) of 0.855, a relative viability (NCI-H650; first compound 8 µM) of 0.826 and a relative viability (NCI-H1944; first compound 0.08 µM) of 0.792. For the same compound, the relative viability (NCI-H1944; first compound 0.253 µM) was 0.755, the relative viability (NCI-H1944; first compound 0.8 µM) was 0.685 and the relative viability (NCI-H1944; first compound 8 µM) was 0.682. The relative viability (BEN; first compound 0.08 µM) was 0.793, the relative viability (BEN; first compound 0.253 µM) was 0.785 and the relative viability (BEN; first compound 0.8 µM) was 0.682. For the same compound, the relative viability (BEN; first compound 2.53 µM) was 0.645, the relative viability (BEN; first compound 8 µM) was 0.694 and the relative viability (ABC-1; first compound 0.08 µM) was 1.1. For the same compound, the relative viability (ABC-1; first compound 0.253 µM) was 1.33, the relative viability (ABC-1; first compound 0.8 µM) was 1.17 and the relative viability (ABC-1; first compound 2.53 µM) was 0.981. For the same compound, the relative viability (ABC-1; first compound 8 µM) was 0.929, the relative viability (NCI-H2023; first compound 0.08 µM) was 0.963 and the relative viability (NCI-H2023; first compound 0.253 µM) was 0.956. It also gave a relative viability (NCI-H2023; first compound 0.8 µM) of 0.737, a relative viability (NCI-H2023; first compound 2.53 µM) of 0.691 and a relative viability (NCI-H2023; first compound 8 µM) of 0.653. For the same compound, the relative viability (NCI-H520; first compound 0.08 µM) was 0.835, the relative viability (NCI-H520; first compound 0.253 µM) was 0.964 and the relative viability (NCI-H520; first compound 0.8 µM) was 0.703. The relative viability (NCI-H520; first compound 2.53 µM) was 0.734, the relative viability (NCI-H520; first compound 8 µM) was 0.598 and the relative viability (NCI-H661; first compound 0.08 µM) was 0.51. For the same compound, the relative viability (NCI-H661; first compound 0.253 µM) was 0.554, the relative viability (NCI-H661; first compound 0.8 µM) was 0.43 and the relative viability (NCI-H661; first compound 2.53 µM) was 0.396. The relative viability (NCI-H661; first compound 8 µM) was 0.407, the relative viability (LC-2-ad; first compound 0.08 µM) was 0.982 and the relative viability (LC-2-ad; first compound 0.253 µM) was 0.919. The relative viability (LC-2-ad; first compound 0.8 µM) was 0.898, the relative viability (LC-2-ad; first compound 8 µM) was 1.01 and the relative viability (PC-3 [JPC-3]; first compound 0.08 µM) was 0.449. It also gave a relative viability (PC-3 [JPC-3]; first compound 0.253 µM) of 0.528, a relative viability (PC-3 [JPC-3]; first compound 0.8 µM) of 0.405 and a relative viability (PC-3 [JPC-3]; first compound 2.53 µM) of 0.485. The relative viability (PC-3 [JPC-3]; first compound 8 µM) was 0.478, the relative viability (NCI-H727; first compound 0.08 µM) was 0.881 and the relative viability (NCI-H727; first compound 0.253 µM) was 1.54. The relative viability (NCI-H727; first compound 0.8 µM) was 0.711, the relative viability (NCI-H727; first compound 2.53 µM) was 0.841 and the relative viability (NCI-H727; first compound 8 µM) was 1.22. For the same compound, the relative viability (NCI-H2087; first compound 0.08 µM) was 1.07, the relative viability (NCI-H2087; first compound 0.253 µM) was 0.975 and the relative viability (NCI-H2087; first compound 0.8 µM) was 1.1. The relative viability (NCI-H2087; first compound 2.53 µM) was 0.868, the relative viability (NCI-H2087; first compound 8 µM) was 0.776 and the relative viability (NCI-H596; first compound 0.08 µM) was 1.08. The relative viability (NCI-H596; first compound 0.253 µM) was 1.13, the relative viability (NCI-H596; first compound 0.8 µM) was 1.07 and the relative viability (NCI-H596; first compound 2.53 µM) was 0.87. It also gave a relative viability (NCI-H596; first compound 8 µM) of 1.14, a relative viability (LCLC-97TM1; first compound 0.08 µM) of 0.684 and a relative viability (LCLC-97TM1; first compound 0.253 µM) of 1.67. For the same compound, the relative viability (LCLC-97TM1; first compound 0.8 µM) was 0.881, the relative viability (LCLC-97TM1; first compound 2.53 µM) was 0.555 and the relative viability (LCLC-97TM1; first compound 8 µM) was 0.543. The relative viability (A-427; first compound 0.08 µM) was 1.01, the relative viability (A-427; first compound 0.253 µM) was 1.07 and the relative viability (A-427; first compound 0.8 µM) was 1.02. It also gave a relative viability (A-427; first compound 2.53 µM) of 0.997 and a relative viability (A-427; first compound 8 µM) of 1.01.

Reference: the supplement of paper PMC10307832
